Test results taken from BindingDB's records for patent US20240398793 (Celltaxis, 2024).

Target: T1, Leukotriene A-4 hydrolase (Homo sapiens, UniProt P09960)
T1 sequence (P09960 whole entry): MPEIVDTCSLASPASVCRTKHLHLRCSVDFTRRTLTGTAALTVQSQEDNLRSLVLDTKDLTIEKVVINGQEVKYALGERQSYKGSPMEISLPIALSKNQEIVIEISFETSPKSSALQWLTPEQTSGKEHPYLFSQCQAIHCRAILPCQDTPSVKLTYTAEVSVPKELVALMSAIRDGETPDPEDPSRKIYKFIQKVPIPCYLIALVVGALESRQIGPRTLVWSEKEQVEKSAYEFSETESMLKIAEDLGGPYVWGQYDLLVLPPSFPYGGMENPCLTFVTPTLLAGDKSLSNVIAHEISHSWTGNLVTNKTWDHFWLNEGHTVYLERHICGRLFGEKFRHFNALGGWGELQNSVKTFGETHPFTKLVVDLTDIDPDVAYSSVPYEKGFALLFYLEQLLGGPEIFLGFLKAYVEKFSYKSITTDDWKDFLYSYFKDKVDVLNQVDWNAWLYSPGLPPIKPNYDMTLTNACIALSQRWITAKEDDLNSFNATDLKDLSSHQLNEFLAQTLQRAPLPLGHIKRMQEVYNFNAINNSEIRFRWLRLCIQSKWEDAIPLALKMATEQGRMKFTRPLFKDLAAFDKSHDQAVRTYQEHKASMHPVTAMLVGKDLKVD
Test: Homogenous Time Resolved Fluorescence Assay
Description: The hydrolase-homogeneous time resolved fluorescence assay is a two-step assay that measures the hydrolysis of LTA4 to LTB4 by analyzing the amount of LTB4 produced. The first step involves the enzymatic conversion of LTA4 to LTB4 and the second step involves the quantification of the LTB4 formed with a homogeneous time resolved fluorescence assay.

Row | SMILES | IC50
1 | COc1cc(O)cc(/C=C/c2ccc(O)cc2)c1 [US20240398793, Compound 5] | 3.9 µM
2 | CC(=O)Oc1ccc(/C=C/c2cc(OC(C)=O)cc(OC(C)=O)c2)cc1 [US20240398793, Compound 4] | 38.6 µM
3 | Cc1ccc2c(=O)c(-c3ccc(O)cc3)coc2c1O [US20240398793, Compound 15] | 1.2 µM
4 | O=c1c(-c2ccc(O)cc2)coc2cc(O)ccc12 [US20240398793, Compound 11] | 15 µM

Continued by falling IC50, values first:

Row | IC50 | SMILES
5 | 48.2 µM | O=c1c(-c2ccccc2)coc2cc(O)ccc12 [US20240398793, Compound 13]
6 | 34.2 µM | O=C(Cc1ccc(O)cc1)c1ccc(O)cc1O [US20240398793, Compound 10]
7 | 6.4 µM | COc1cc(O)cc(CCc2ccc(O)cc2)c1 [US20240398793, Compound 6]
8 | 3.2 µM | CCOc1cc(O)cc(CCc2ccc(O)cc2)c1 [US20240398793, Compound 7]
9 | 1.7 µM | COc1cc(O)cc(CCc2cccc(O)c2)c1 [Batatasin III (4)]
10 | 0.5 µM | COc1cc(O)cc(CCc2ccccc2O)c1 [US20240398793, Compound 9]
